Experimental data as given in patent US8653092B2, “Tetrahydro-pyrido-pyrimidine derivatives” (Novartis AG, priority 2010, dated 2014).

Assays:
[1] = target: PI3K alpha (Homo sapiens (Human), UniProt P42336); assay: Enzymatic PI3K alpha isoform inhibition (lipid kinase, Kinase-Glo luminescence); format: biochemical; conditions: enzymatic assay
[2] = target: PI3K delta (Homo sapiens (Human), UniProt O00329); assay: Enzymatic PI3K delta isoform inhibition (lipid kinase, Kinase-Glo luminescence); format: biochemical; conditions: enzymatic assay
Sequence of PI3K delta (O00329 other isoform, or with tags, fused parts or gaps linker GGGGGG): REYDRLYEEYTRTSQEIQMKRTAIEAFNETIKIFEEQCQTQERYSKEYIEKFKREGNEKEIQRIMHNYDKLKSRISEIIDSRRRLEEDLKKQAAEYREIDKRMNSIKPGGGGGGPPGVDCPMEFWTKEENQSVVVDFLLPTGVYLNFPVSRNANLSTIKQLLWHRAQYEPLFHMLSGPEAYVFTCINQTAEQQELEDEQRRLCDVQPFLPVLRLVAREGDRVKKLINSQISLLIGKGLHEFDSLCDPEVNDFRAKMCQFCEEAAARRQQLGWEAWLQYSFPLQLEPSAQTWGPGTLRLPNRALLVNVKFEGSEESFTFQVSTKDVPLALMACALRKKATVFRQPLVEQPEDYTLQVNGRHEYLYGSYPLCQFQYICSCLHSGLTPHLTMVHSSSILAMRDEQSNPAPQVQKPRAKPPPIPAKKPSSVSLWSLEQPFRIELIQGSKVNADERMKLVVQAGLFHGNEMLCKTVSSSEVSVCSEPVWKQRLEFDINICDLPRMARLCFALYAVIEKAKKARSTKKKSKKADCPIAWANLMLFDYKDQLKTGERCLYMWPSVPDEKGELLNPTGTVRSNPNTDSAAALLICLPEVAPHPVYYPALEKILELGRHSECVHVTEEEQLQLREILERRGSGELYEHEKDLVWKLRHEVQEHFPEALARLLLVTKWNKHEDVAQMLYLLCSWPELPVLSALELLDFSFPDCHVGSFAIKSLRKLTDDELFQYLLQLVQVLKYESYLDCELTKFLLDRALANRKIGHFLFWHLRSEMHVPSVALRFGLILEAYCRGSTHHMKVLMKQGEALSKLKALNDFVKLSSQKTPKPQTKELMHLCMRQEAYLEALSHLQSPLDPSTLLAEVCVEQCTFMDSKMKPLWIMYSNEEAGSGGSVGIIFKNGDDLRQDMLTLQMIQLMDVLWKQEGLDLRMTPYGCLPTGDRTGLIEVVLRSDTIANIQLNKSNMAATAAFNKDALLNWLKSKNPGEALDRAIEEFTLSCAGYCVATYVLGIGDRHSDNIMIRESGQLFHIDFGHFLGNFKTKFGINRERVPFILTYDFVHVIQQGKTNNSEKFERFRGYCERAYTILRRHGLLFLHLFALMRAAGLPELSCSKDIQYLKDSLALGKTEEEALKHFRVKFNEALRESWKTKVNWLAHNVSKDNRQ

Sequence of PI3K alpha (P42336 other isoform, or with tags, fused parts or gaps): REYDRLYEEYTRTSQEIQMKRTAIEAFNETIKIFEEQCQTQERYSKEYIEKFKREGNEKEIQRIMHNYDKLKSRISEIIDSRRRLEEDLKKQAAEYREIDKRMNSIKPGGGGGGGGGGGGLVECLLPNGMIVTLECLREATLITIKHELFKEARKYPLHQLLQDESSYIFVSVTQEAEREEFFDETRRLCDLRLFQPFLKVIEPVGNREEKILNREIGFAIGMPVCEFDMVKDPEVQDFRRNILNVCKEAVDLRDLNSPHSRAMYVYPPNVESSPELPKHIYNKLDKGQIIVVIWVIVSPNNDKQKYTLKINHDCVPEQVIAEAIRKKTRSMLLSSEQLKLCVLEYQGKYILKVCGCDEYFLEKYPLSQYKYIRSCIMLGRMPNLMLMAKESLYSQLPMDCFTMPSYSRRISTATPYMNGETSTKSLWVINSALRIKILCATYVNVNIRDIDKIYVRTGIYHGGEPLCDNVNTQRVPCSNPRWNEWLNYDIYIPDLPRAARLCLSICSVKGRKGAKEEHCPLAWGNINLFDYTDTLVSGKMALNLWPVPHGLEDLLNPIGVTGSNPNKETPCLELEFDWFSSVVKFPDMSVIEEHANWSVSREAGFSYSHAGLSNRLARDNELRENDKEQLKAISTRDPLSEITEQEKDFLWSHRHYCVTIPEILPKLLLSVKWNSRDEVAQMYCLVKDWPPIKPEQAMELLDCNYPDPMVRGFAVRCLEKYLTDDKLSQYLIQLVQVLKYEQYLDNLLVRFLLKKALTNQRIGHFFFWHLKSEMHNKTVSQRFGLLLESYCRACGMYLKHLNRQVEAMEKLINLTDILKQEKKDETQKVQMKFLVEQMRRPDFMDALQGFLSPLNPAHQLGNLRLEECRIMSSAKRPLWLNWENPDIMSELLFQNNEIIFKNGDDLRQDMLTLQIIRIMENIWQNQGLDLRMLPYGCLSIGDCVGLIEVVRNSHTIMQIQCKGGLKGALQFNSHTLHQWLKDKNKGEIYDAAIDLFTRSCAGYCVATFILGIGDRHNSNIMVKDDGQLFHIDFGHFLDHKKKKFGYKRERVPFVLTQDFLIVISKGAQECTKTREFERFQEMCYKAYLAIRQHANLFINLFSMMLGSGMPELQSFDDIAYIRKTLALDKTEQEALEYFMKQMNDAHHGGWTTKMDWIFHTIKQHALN

Compound	IC50 [1] [µM]	IC50 [2] [µM]
COc1ncc(N2CCc3ncnc(O[C@H]4CCN(C(=O)N5CCN(C(C)=O)CC5)C4)c3C2)cc1C(F)(F)F [Example 89, 1-(4-{(S)-3-[6-(6-methoxy-5-trifluoromethyl-pyridin-3-yl)-5,6,7,8-tetrahydro-pyrido[4,3-d]pyrimidin-4-yloxy]-pyrrolidine-1-carbonyl}-piperazin-1-yl)-ethanone]	1.19	0.029
COc1ncc(N2CCc3ncnc(N[C@H]4CCN(C(=O)c5cnco5)C4)c3C2)cc1C [Example 78, {(S)-3-[6-(6-Methoxy-5-methyl-pyridin-3-yl)-5,6,7,8-tetrahydro-pyrido[4,3-d]pyrimidin-4-ylamino]-pyrrolidin-1-yl}-oxazol-5-yl-methanone]	0.384	0.012
COc1ncc(N2CCc3ncnc(O[C@H]4CCN(C(=O)c5cnoc5C)C4)c3C2)cc1C [Example 31, {(S)-3-[6-(6-Methoxy-5-methyl-pyridin-3-yl)-5,6,7,8-tetrahydro-pyrido[4,3-d]pyrimidin-4-yloxy]-pyrrolidin-1-yl}-(5-methyl-isoxazol-4-yl)-methanone]	3.02	0.021
COc1ncc(N2CCc3ncnc(O[C@H]4CCN(C(=O)c5coc(C)n5)C4)c3C2)cc1C [Example 14, {(S)-3-[6-(6-Methoxy-5-methyl-pyridin-3-yl)-5,6,7,8-tetrahydro-pyrido[4,3-d]pyrimidin-4-yloxy]-pyrrolidin-1-yl}-(2-methyl-oxazol-4-yl)-methanone]	1.83	0.013
COc1ncc(N2CCc3ncnc(N[C@H]4CCN(C(=O)C5CCN(C(C)=O)CC5)C4)c3C2)cc1C(F)(F)F [Example 70, 1-(4-{(S)-3-[6-(6-methoxy-5-trifluoromethyl-pyridin-3-yl)-5,6,7,8-tetrahydro-pyrido[4,3-d]pyrimidin-4-ylamino]-pyrrolidine-1-carbonyl}-piperidin-1-yl)-ethanone]	0.121	0.006
COc1ncc(N2CCc3ncnc(N[C@H]4CCN(C(=O)c5cnco5)C4)c3C2)cc1C(F)(F)F [Example 72, {(S)-3-[6-(6-Methoxy-5-trifluoromethyl-pyridin-3-yl)-5,6,7,8-tetrahydro-pyrido[4,3-d]pyrimidin-4-ylamino]-pyrrolidin-1-yl}-oxazol-5-yl-methanone]	0.093	0.004
COc1ncc(N2CCc3ncnc(O[C@H]4CCN(C(=O)c5cncn5C)C4)c3C2)cc1C [Example 13, {(S)-3-[6-(6-Methoxy-5-methyl-pyridin-3-yl)-5,6,7,8-tetrahydro-pyrido[4,3-d]pyrimidin-4-yloxy]-pyrrolidin-1-yl}-(3-methyl-3H-imidazol-4-yl)-methanone]	1.8	0.013
COc1ncc(N2CCc3ncnc(O[C@H]4CCN(C(=O)c5oc(C)nc5C)C4)c3C2)cc1C [Example 10, (2,4-Dimethyl-oxazol-5-yl)-{(S)-3-[6-(6-methoxy-5-methyl-pyridin-3-yl)-5,6,7,8-tetrahydro-pyrido[4,3-d]pyrimidin-4-yloxy]-pyrrolidin-1-yl}-methanone]	0.668	0.009
COc1cc(N2CCc3ncnc(O[C@H]4CCN(C(=O)c5cnco5)C4)c3C2)cnc1OC [Example 22, {(S)-3-[6-(5,6-Dimethoxy-pyridin-3-yl)-5,6,7,8-tetrahydro-pyrido[4,3-d]pyrimidin-4-yloxy]-pyrrolidin-1-yl}-oxazol-5-yl-methanone]	0.58	0.008
N#Cc1cc(N2CCc3ncnc(O[C@H]4CCN(C(=O)C5CCOCC5)C4)c3C2)cnc1N [Example 6, 2-Amino-5-{4-[(S)-1-(tetrahydro-pyran-4-carbonyl)-pyrrolidin-3-yloxy]-7,8-dihydro-5H-pyrido[4,3-d]pyrimidin-6-yl}-nicotinonitrile]	0.987	0.044
COc1ncc(N2CCc3ncnc(O[C@H]4CCN(C(=O)C5CCOCC5)C4)c3C2)cc1Cl [Example 56, {(S)-3-[6-(5-Chloro-6-methoxy-pyridin-3-yl)-5,6,7,8-tetrahydro-pyrido[4,3-d]pyrimidin-4-yloxy]-pyrrolidin-1-yl}-(tetrahydro-pyran-4-yl)-methanone]	0.86	0.013
COc1cc(N2CCc3ncnc(O[C@H]4CCN(C(=O)C5CCC(F)(F)CC5)C4)c3C2)cnc1OC [Example 26, (4,4-Difluoro-cyclohexyl)-{(S)-3-[6-(5,6-dimethoxy-pyridin-3-yl)-5,6,7,8-tetrahydro-pyrido[4,3-d]pyrimidin-4-yloxy]-pyrrolidin-1-yl}-methanone]	0.368	0.021
COc1ncc(N2CCc3ncnc(O[C@H]4CCN(C(=O)C5CCN(C(C)=O)CC5)C4)c3C2)cc1C [Example 17, 1-(4-{(S)-3-[6-(6-Methoxy-5-methyl-pyridin-3-yl)-5,6,7,8-tetrahydro-pyrido[4,3-d]pyrimidin-4-yloxy]-pyrrolidine-1-carbonyl}-piperidin-1-yl)-ethanone]	7.68	0.017
COc1ncc(N2CCc3ncnc(O[C@H]4CCN(C(=O)c5cscn5)C4)c3C2)cc1C#N [Example 35, 2-Methoxy-5-{4-[(S)-1-(thiazole-4-carbonyl)-pyrrolidin-3-yloxy]-7,8-dihydro-5H-pyrido[4,3-d]pyrimidin-6-yl}-nicotinonitrile]	4.23	0.049
COc1ncc(N2CCc3ncnc(O[C@H]4CCN(C(=O)c5cccnc5)C4)c3C2)cc1C(F)(F)F [Example 44, {(S)-3-[6-(6-Methoxy-5-trifluoromethyl-pyridin-3-yl)-5,6,7,8-tetrahydro-pyrido[4,3-d]pyrimidin-4-yloxy]-pyrrolidin-1-yl}-pyridin-3-yl-methanone]	1.19	0.016
COc1ncc(N2CCc3ncnc(O[C@H]4CCN(C(=O)c5ncoc5C)C4)c3C2)cc1C [Example 30, {(S)-3-[6-(6-Methoxy-5-methyl-pyridin-3-yl)-5,6,7,8-tetrahydro-pyrido[4,3-d]pyrimidin-4-yloxy]-pyrrolidin-1-yl}-(5-methyl-oxazol-4-yl)-methanone]	2.83	0.04
COc1ncc(N2CCc3ncnc(O[C@H]4CCN(C(=O)c5cncs5)C4)c3C2)cc1C(F)(F)F [Example 41, {(S)-3-[6-(6-Methoxy-5-trifluoromethyl-pyridin-3-yl)-5,6,7,8-tetrahydro-pyrido[4,3-d]pyrimidin-4-yloxy]-pyrrolidin-1-yl}-thiazol-5-yl-methanone]	0.515	0.014
COc1ncc(N2CCc3ncnc(O[C@H]4CCN(C(=O)C5CCOCC5)C4)c3C2)cc1F [Example 7]	1.97	0.013
COc1ncc(N2CCc3ncnc(O[C@H]4CCN(C(=O)c5ccoc5)C4)c3C2)cc1C [Example 11, Furan-3-yl-{(S)-3-[6-(6-methoxy-5-methyl-pyridin-3-yl)-5,6,7,8-tetrahydro-pyrido[4,3-d]pyrimidin-4-yloxy]-pyrrolidin-1-yl}-methanone]	1.2	0.011
COc1ncc(N2CCc3ncnc(O[C@H]4CCN(C(=O)c5nnc(C)o5)C4)c3C2)cc1C(F)(F)F [Example 51, {(S)-3-[6-(6-Methoxy-5-trifluoromethyl-pyridin-3-yl)-5,6,7,8-tetrahydro-pyrido[4,3-d]pyrimidin-4-yloxy]-pyrrolidin-1-yl}-(5-methyl-[1,3,4]oxadiazol-2-yl)-methanone]	0.912	0.044
